Key:
NF-κB signaling pathway = settings: 0.025% applied topically to the eye, mice; cited from earlier work
dry eye dogs = settings: 0.02% drops applied topically in the eye; cited from earlier work
[1] = system: Patients with Sjogren's syndrome; settings: 0.03%; cited from earlier work
[2] = cited from earlier work
[3] = system: corneal epithelial barrier of mice suffering dry eye; test: Corneal OGD fluorescent staining in dry eye mouse model; assay type: in vivo, C57BL/6 mice; settings: 0.1% eye drop, 4 times a day on both eyes
Protocol: (§1) 1. Establish a dry eye mouse model: Female C57BL/6 mice of 10-12 weeks old were injected subcutaneously with scopolamine 0.5 mg/0.2 mL four times a day and kept in a dry environment for 5 days (RH: 30±3; T: 23-25° C.); normal control group was maintained in normal environment (RH: 60%-80%; T: 23-25° C.).
(§2) Preparation of mizoribine eye drop: dry eye treatment group used 0.1% of mizoribine eye drop prepared by the method of Embodiment 1.
(§3) Eye drop method: Eye drop treatment was performed using the above-mentioned eye drops 4 times a day on both eyes.
1. Corneal OGD fluorescent staining: mice were sacrificed, and 0.5 μl of Oregongreen-dextran (OGD) was dropped into the conjunctival sac of mice with a pipette, manual blinking was performed, and the conjunctival sac was washed with 1 mL of normal saline 1 minute later. The corneal epithelial fluorescence staining was observed and shot under a living fluorescence microscope.

IL-13 = test: Real-Time PCR of conjunctival RNA in dry eye mouse model; assay type: in vivo, C57BL/6 mice; settings: 0.1% eye drop, compared with the dry eye group
Protocol: as §1, §2, §3
(§4) Prepare the PCR reaction solution according to the following components:
(§5) Three-step PCR amplification standard procedure:
(§6) Stage 1: Pre-denaturation cycle number: 195° C., 30 sec.
(§7) Stage 2: number of PCR reaction cycles: 4095° C. for 5 sec. and 60° C. for 34 sec.
(§8) Stage 3: Dissolving curve
(§9) The relative expression level of the gene was analyzed by the relative Ct method, and the specific expression of the target gene was calculated by the following formula, that is to say, the relative expression level=2^−ΔΔCt; wherein −ΔΔCt=−(ΔCt, q−ΔCt, cb), ΔCt, q=Ct,x−Ct, r ΔCt, cb=Ct, cb−Ct, r, where r=reference gene, Cb=calibration value, X=target gene, and cycle threshold (C) is determined through primary signal (fluorescence).

TNF-α = test: as above; assay type: in vivo, C57BL/6 mice; settings: 0.1% eye drop, compared with the dry eye group
Protocol: as §1, §2, §3, §4, §5, §6, §7, §8, §9

IFN-γ = test: as above; assay type: in vivo, C57BL/6 mice; settings: 0.1% eye drop, compared with the dry eye group
Protocol: as §1, §2, §3, §4, §5, §6, §7, §8, §9

IL-1β = test: as above; assay type: in vivo, C57BL/6 mice; settings: 0.1% eye drop, compared with the dry eye group
Protocol: as §1, §2, §3, §4, §5, §6, §7, §8, §9

[4] = system: conjunctival CD4+T cell infiltration; test: Conjunctival CD4+T cell staining in dry eye mouse model; assay type: in vivo, C57BL/6 mice; settings: 0.1% eye drop, compared with the dry eye group
Protocol: as §1, §2, §3
3. Conjunctival CD4+T cell staining: fixing frozen sections by acetone at −20° C. for 10 minutes, disrupting with 0.2% of Triton-X PBS for 10 minutes, and using 0.3% of H2O2 to eliminate endogenous peroxidase, blocking with 20% of normal goat serum for 45 minutes. The primary anti-CD4 was incubated for 1 hour at room temperature. After extensive washing (digestion), the biotinylated (second) antibody was incubated for 30 minutes. Finally, a Vectastain Elite ABC kit was used to develop color and stain the nucleus.

[5] = system: conjunctival goblet cells; test: PAS staining of conjunctival goblet cells in dry eye mouse model; assay type: in vivo, C57BL/6 mice; settings: 0.1% eye drop, compared with the dry eye group
Protocol: as §1, §2, §3
2. PAS staining of conjunctival goblet cells: Paraffin specimens of the whole eyeballs (conjunctival sac) of the mice were cut into 5 um sections and stained with periodic acid-Schiff (PAS) reagent to observe the morphology and number of conjunctival goblet cells.

## C=CC[C@@H]1/C=C(\C)C[C@H](C)C[C@H](OC)[C@H]2O[C@@](O)(C(=O)C(=O)N3CCCC[C@H]3C(=O)O[C@H](/C(C)=C/[C@@H]3CC[C@@H](O)[C@H](OC)C3)[C@H](C)[C@@H](O)CC1=O)[C@H](C)C[C@@H]2OC [FK506, tacrolimus]
NF-κB signaling pathway
  activation of NF-κB signaling pathway: inhibit the activation of NF-κB signaling pathway
  ocular surface signs of dry eye: reduce the ocular surface signs of dry eye
Dry eye dogs
  amount of tear secretion: significantly increase
[1]
  tear film stability: improve tear film stability
[2]
  solubility in water: hardly soluble in water

## NC(=O)c1ncn([C@@H]2O[C@H](CO)[C@@H](O)[C@H]2O)c1O [mizoribine]
[3]
  corneal flaky staining (OGD): no flaky staining was observed
[3]; compared with the dry eye group
  number of corneal punctiform staining (OGD): significantly reduced
IL-13
  expression of conjunctival IL-13: significantly decreased
TNF-α
  expression of conjunctival TNF-α: significantly decreased
IFN-γ
  expression of conjunctival IFN-γ: significantly decreased
IL-1β
  expression of conjunctival IL-1β: significantly decreased
[4]
  proportion of brown-yellow cells (conjunctival CD4+T cells): significantly reduced
[5]
  number of conjunctival goblet cells (PAS): significant increase

— US20200171066A1, “EYE DROP FOR TREATING DRY EYE” (Xiamen University, priority 2017, published 2020)
